In patent EP4796171A2 (Zealand Pharma A/S, priority 2017, dated 2018):
Values joined by “and” are separate entries in the source; they are usually repeats but may differ in a detail not shown here. Equal values may be shown once.

Experiment: Phase 1 trial, PK profile of glepaglutide after SC injections in healthy subjects
Format: in vivo, human
Conditions: individual subjects; for Half-life of ZP2469 in the interval from 72 to 168 hours post dose: final data; for Half-life ZP2469: preliminary data
Protocol: A Phase 1 clinical trial to characterize the pharmacokinetic (PK) profiles of glepaglutide (ZP1848) and its primary active metabolites following once-weekly and once daily subcutaneous (SC) injections and after a single intravenous (IV) infusion in healthy subjects was conducted. This included evaluating the pharmacodynamic effects on plasma citrulline levels following SC dosing in healthy subjects. The trial confirmed the feasibility of dosage regimes in which GLP-2 analogues are administered to patients in weekly dosage regimes and compare weekly dosage regimes with daily dosing.
The trial design was a single-center, open-label, partially randomized, 3-part, parallel group trial to characterize the PK profile of glepaglutide administered by SC injection once daily for 7 days (Part 1), SC injection once weekly for 6 weeks (Part 2), and as a single IV infusion (Part 3) in healthy subjects.
Glepaglutide was supplied as an aqueous solution at concentrations of 2 and 10 mg/mL. • Group A: 1 mg glepaglutide once daily, given as single SC injections on Days 1 to 7. • Group B: 5 mg glepaglutide once daily, given as single SC injections on Days 1 to 7. • Group C: 5 mg glepaglutide once weekly, given as single SC injections on Days 1, 8, 15, 22, 29, and 36. • Group D: 10 mg glepaglutide once weekly, given as single SC injections on Days 1, 8, 15, 22, 29, and 36. • Group E: 1 mg glepaglutide, given as an IV infusion at a rate of 4 mg/h for 15 minutes on Day 1.
Blood samples were collected for the analysis of plasma concentrations of glepaglutide and its primary active metabolites, ZP2469 (ZP18481-34) and ZP2711 (ZP18481-35); samples were assayed using validated analytical methods. The following PK parameter estimates were calculated using standard non-compartmental methods: terminal elimination half-life (t1/2), total body clearance of drug after IV administration (CL; IV dose, parent drug only), apparent total clearance (CL/F; SC doses, parent drug only), volume of distribution at steady state (Vss; IV dose, parent drug only), apparent volume of distribution at steady state (Vss/F; SC doses, parent drug only), volume of distribution (Vz; IV dose, parent drug only), apparent volume of distribution (Vz/F; SC doses, parent drug only), maximum observed plasma concentration (Cmax), area under the plasma concentration-time curve (AUC) over a dosing interval (AUCT), AUC from time zero to infinity (AUCinf), AUC from time zero to the time of the last measurable concentration (AUClast), and time of the maximum observed plasma concentration (tmax). Metabolite exposure (based on Cmax, AUCT, and AUCinf) were determined for each group as a ratio of the 2 primary active metabolites, ZP2469 (ZP18481-34) and ZP2711 (ZP18481-35), relative to the glepaglutide parent drug.
The PK parameters estimates for glepaglutide, ZP2469 (ZP18481-34), and ZP2711 (ZP18481-35) were listed and summarized using standard descriptive statistics. The primary PK parameters are t1/2 for glepaglutide, ZP2469 (ZP18481-34), and ZP2711 (ZP18481-35); and CL (IV dose), CL/F (SC doses), Vss (IV dose), Vss/F (SC dose), Vz (IV dose), and Vz/F (SC doses) for glepaglutide. The half-life is calculated as LN(2)/ke where ÷ke is estimate from the slope of the terminal part of the LN(concentration) versus time curve, with repeats regressions of LN(concentration) values using the last three points with non-zero concentrations, then the last four points, last five points, etc. Points with a concentration value of zero are not included. Points prior to Cmax are not used. […] 2) ke must be calculated from at least three data points. 3) The estimated slope must be negative, so that its negative ke is positive. The results of the calculations carried out with preliminary data are shown in Table 4, while the results of the calculations with the complete final data set are shonw in Table 5. […]

For “H-HGEGTFSSELATILDALAARDFIAWLIATKITDK-OH [ZP2469]”, the “Half-life of ZP2469 in the interval from 72 to 168 hours post dose” value (shortened to “Half-life of ZP2469 in the interval”) (Group A, 1 mg once daily, after 7 doses) was 75 h and 87 h and 80 h and 54 h and 57 h, the “Half-life of ZP2469 in the interval” value (Group B, 5 mg once daily, after 7 doses) was 168 hr and 77 hr and 101 hr (2×) and 53 hr and 34 hr and 46 hr and 100 hr and 40 hr and 84 hr and 50 hr and 42 hr and the “Half-life of ZP2469 in the interval” value (Group C, 5 mg once weekly, after 1 dose) was 329 hr and 41 hr and 38 hr and 48 hr (2×) and 59 hr and 61 hr and 217 hr and 45 hr and 39 hr and 91 hr and 75 hr. For the same substance, the “Half-life of ZP2469 in the interval” value (Group C, 5 mg once weekly, after 6 doses) was 26 h and 35 h and 59 h and 75 h and 57 h and 43 h and 52 h and 107 h and 33 h and 68 h and 47 h and 65 h and 452 h, the “Half-life of ZP2469 in the interval” value (Group D, 10 mg once weekly, after 1 dose) was 66 hr and 54 hr and 120 hr and 36 hr and 46 hr and 35 hr and 60 hr and 26 hr and 158 hr and 53 hr and 43 hr (2×) and 33 hr and 45 hr and 38 hr and the “Half-life of ZP2469 in the interval” value (Group D, 10 mg once weekly, after 6 doses) was 60 hr (2×) and 55 hr and 74 hr and 58 hr and 70 hr and 59 hr and 30 hr and 102 hr and 53 hr and 42 hr and 48 hr and 56 hr and 17 hr. The “Half-life ZP2469” value (Group A, 1 mg glepaglutide SC once daily, after 7 doses) was 20 h and 95 h and 76 h and 36 h and 33 h and 87 h, the “Half-life ZP2469” value (Group B, 5 mg glepaglutide SC once daily, after 7 doses) was 75 h and 108 h and 209 h and 59 h and 139 h and 94 h and the “Half-life ZP2469” value (Group C, 5 mg glepaglutide SC once weekly, after 1 dose) was 38 hr (2×) and 100 hr and 17 hr and 48 hr and 20 hr. For the same substance, the “Half-life ZP2469” value (Group C, 5 mg glepaglutide SC once weekly, after 6 doses) was 11 h and 17 h and 16 h and 32 h and 40 h and 22 h, the “Half-life ZP2469” value (Group D, 10 mg glepaglutide SC once weekly, after 1 dose) was 52 h and 38 h and 43 h and 34 h and the “Half-life ZP2469” value (Group D, 10 mg glepaglutide SC once weekly, after 6 doses) was 60 h and 55 h and 74 h and 34 h and 58 h.
